Data from the NIST ThermoML archive (doi:10.1016/j.jct.2015.05.020).
Numbers after ± are expanded uncertainties.

Tests used:
[1] = Molar enthalpy of transition or fusion; conditions: Crystal; DSC
[2] = Crystal; visual observation

COc1cc(C=O)ccc1O [vanillin]
Molar enthalpy of transition or fusion [1]: 5.92 ± 0.406 kcal/mol | Normal melting temperature [2]: 81.60 ± 1.1 °C
